The results in this text go back to US20250114460A1, “NOVEL PLK1 DEGRADATION INDUCING COMPOUND” (UPPTHERA, INC., priority 2021, published 2025).

Holding throughout (type): cell-based
The target in one assay is T1, PLK1 (Homo sapiens, UniProt P53350).
T1 construct: endogenous in cells; host or cells: HeLa LgBit (Plk1-HiBit KI): HeLa stably expressing LgBit, with a CRISPR/Cas9 knock-in of HiBit at the endogenous PLK1 locus
The assay is described as follows: Luciferase assay for PLK1 in HeLa LgBit (Plk1-HiBit KI) cell line. The conditions noted are these: 300 nM compound, luminescence after 9 hours. A digest of the protocol: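 HeLa cells stably expressing LgBit, with HiBit knocked in at the C-terminus of endogenous Plk1, released from a 24 h 2 mM thymidine block and grown 18 h. Endurazine added, then compound at 300 nM; luminescence tracked in real time, expressed as ratio to DMSO.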

In a further assay the test system is NCI-H526 cell line. Nature of the assay: Cell viability assay for H526 cell (EZ-Cytox). The conditions noted are these: Homo sapiens, NCI-H526, 120 h; H526 cells, 5 days, 3000 nM to 0.46 nM. The essentials:
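NCI-H526 cells were exposed to compound in CO2 incubator culture for 5 days. Viability was read by EZ-Cytox absorbance at 450 nm after 3 min shaking, giving IC50 values.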

For the next assay, the system named is MRC-5 cell line. The assay is described as follows: Cell viability assay for MRC-5 cell line (EZ-Cytox). The conditions noted are these: Homo sapiens, MRC5, 120 h, read-out: Activity: IC50 value of Exemplary Compound to MRC-5 cell line. As to the method: 4. Cell Viability Assay for MRC-5 Cell Line
(1) Culture of MRC-5 Cell Line
Passage of cultured cells was maintained within P15.
(2) Treatment of Compounds of the Present Invention
Then, it was cultured in 37° C.
(3) Cytotoxicity Experiment
CO2 incubator for 4 hours.

Setting [1] is: MRC-5 normal cell line, 5 days, 10000 nM to 1.52 nM, N.D. = no cytotoxicity until 10 μM.

Read-outs that look alike come from different tables or passages of the source.

T1 sequence (P53350 whole entry): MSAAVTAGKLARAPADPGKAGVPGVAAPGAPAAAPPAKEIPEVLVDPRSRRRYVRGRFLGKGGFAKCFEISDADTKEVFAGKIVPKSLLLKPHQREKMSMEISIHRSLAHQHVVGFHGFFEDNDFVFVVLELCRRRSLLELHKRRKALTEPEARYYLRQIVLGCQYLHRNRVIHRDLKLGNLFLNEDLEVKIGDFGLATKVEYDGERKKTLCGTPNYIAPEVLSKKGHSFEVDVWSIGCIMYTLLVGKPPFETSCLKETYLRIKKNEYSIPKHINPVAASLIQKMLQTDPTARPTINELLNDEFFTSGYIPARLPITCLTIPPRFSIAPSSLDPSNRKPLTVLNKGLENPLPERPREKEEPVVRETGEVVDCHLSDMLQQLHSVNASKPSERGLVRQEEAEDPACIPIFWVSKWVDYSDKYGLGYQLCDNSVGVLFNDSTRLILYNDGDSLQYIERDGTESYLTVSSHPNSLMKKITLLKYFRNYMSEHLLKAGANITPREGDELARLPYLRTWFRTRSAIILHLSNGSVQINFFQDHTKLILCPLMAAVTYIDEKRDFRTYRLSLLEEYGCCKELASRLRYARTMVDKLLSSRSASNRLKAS

Consider `COc1cc(C(=O)NC2CCN(C(=O)CCN3CCN(c4ccc(F)c5c4C(=O)N(C4CCC(=O)NC4=O)C5=O)CC3)CC2)ccc1Nc1ncc2c(n1)N(C1CCCC1)CC(F)(F)C(=O)N2C` (stereo not drawn) [Compound 142, 4-((9-cyclopentyl-7,7-difluoro-5-methyl-6-oxo-6,7,8,9-tetrahydro-5H-pyrimido[4,5-b][1,4]diazepin-2-yl)amino)-N-(1-(3-(4-(2-(2,6-dioxopiperidin-3-yl)-7-fluoro-1,3-dioxoisoindolin-4-yl)piperazin-1-yl)propanoyl)piperidin-4-yl)-3-methoxybenzamide], for which, on PLK1, the “Activity: ratio of the luminescense value of each Exemplary Compound treatment group to DMSO treatment group” value (from here on “Activity: ratio”) is given as “++ (++<0.6)”. Besides, the IC50 was less than 0.1 µM in the assay with NCI-H526 cell line and more than 10 µM with MRC-5 cell line (setting [1]).
As to `COc1cc(C(=O)NC2CCCN(CCN3CCN(c4cccc5c4C(=O)N(C4CCC(=O)NC4=O)C5=O)CC3)C2)ccc1Nc1ncc2c(n1)N(C1CCCC1)CC(F)(F)C(=O)N2C` (stereo not drawn) [Compound 143, 4-((9-cyclopentyl-7,7-difluoro-5-methyl-6-oxo-6,7,8,9-tetrahydro-5H-pyrimido[4,5-b][1,4]diazepin-2-yl)amino)-N-(1-(2-(4-(2-(2,6-dioxopiperidin-3-yl)-1,3-dioxoisoindolin-4-yl)piperazin-1-yl)ethyl)piperidin-3-yl)-3-methoxybenzamide], the “Activity: ratio” value on PLK1 is “++ (++<0.6)”. Besides, the figures for the IC50 in the assay on NCI-H526 cell line and with MRC-5 cell line were less than 0.1 µM and more than 10 µM, respectively.
For `COc1cc(C(=O)NC2CCCN(CCCN3CCN(c4cccc5c4C(=O)N(C4CCC(=O)NC4=O)C5=O)CC3)C2)ccc1Nc1ncc2c(n1)N(C1CCCC1)CC(F)(F)C(=O)N2C` (stereo not drawn) [Compound 144, 4-((9-cyclopentyl-7,7-difluoro-5-methyl-6-oxo-6,7,8,9-tetrahydro-5H-pyrimido[4,5-b][1,4]diazepin-2-yl)amino)-N-(1-(3-(4-(2-(2,6-dioxopiperidin-3-yl)-1,3-dioxoisoindolin-4-yl)piperazin-1-yl)propyl)piperidin-3-yl)-3-methoxybenzamide] the same measures were “++ (++<0.6)”, less than 0.05 µM and 4.08 µM.
Take `COc1cc(C(=O)NN2CCC(CN3CCN(c4ccc5c(c4)C(=O)N(C4CCC(=O)NC4=O)C5=O)CC3)CC2)ccc1Nc1ncc2c(n1)N(C1CCCC1)CC(F)(F)C(=O)N2C` (stereo not drawn) [Compound 148, 4-((9-cyclopentyl-7,7-difluoro-5-methyl-6-oxo-6,7,8,9-tetrahydro-5H-pyrimido[4,5-b][1,4]diazepin-2-yl)amino)-N-(4-((4-(2-(2,6-dioxopiperidin-3-yl)-1,3-dioxoisoindolin-5-yl)piperazin-1-yl)methyl)piperidin-1-yl)-3-methoxybenzamide]: the “Activity: ratio” value on PLK1 is given as “++ (++<0.6)”. Moreover, the IC50 in the assay with NCI-H526 cell line was less than 0.05 µM; in the assay on MRC-5 cell line (setting [1]) it was 13.2 µM.
On to `COc1cc(C(=O)NN2CCC(CCN3CCN(c4ccc5c(c4)C(=O)N(C4CCC(=O)NC4=O)C5=O)CC3)C2)ccc1Nc1ncc2c(n1)N(C1CCCC1)CC(F)(F)C(=O)N2C` (stereo not drawn) [Compound 149, 4-((9-cyclopentyl-7,7-difluoro-5-methyl-6-oxo-6,7,8,9-tetrahydro-5H-pyrimido[4,5-b][1,4]diazepin-2-yl)amino)-N-(3-(2-(4-(2-(2,6-dioxopiperidin-3-yl)-1,3-dioxoisoindolin-5-yl)piperazin-1-yl)ethyl)pyrrolidin-1-yl)-3-methoxybenzamide], for which the “Activity: ratio” value on PLK1 was “++ (++<0.6)”. The IC50 in the assay with NCI-H526 cell line is less than 0.05 µM; with MRC-5 cell line (setting [1]) it was more than 10 µM.
For `COc1cc(C(=O)N[C@H]2CC[C@H](N3CCN(c4ccc5c(c4)C(=O)N(C4CCC(=O)NC4=O)C5=O)CC3)CC2)ccc1Nc1ncc2c(n1)N(C(C)C)CC(F)(F)C(=O)N2C` (stereo partly drawn) [Compound 150, 4-((7,7-difluoro-9-isopropyl-5-methyl-6-oxo-6,7,8,9-tetrahydro-5H-pyrimido[4,5-b][1,4]diazepin-2-yl)amino)-N-((1r,4r)-4-(4-(2-(2,6-dioxopiperidin-3-yl)-1,3-dioxoisoindolin-5-yl)piperazin-1-yl)cyclohexyl)-3-methoxybenzamide] the same measures were “++ (++<0.6)”, less than 0.05 µM and 19.3 µM.
For `COc1cc(C(=O)NN2CCC(CCN3CCN(c4cccc5c4C(=O)N(C4CCC(=O)NC4=O)C5=O)CC3)C2)ccc1Nc1ncc2c(n1)N(C1CCCC1)CC(F)(F)C(=O)N2C` (stereo not drawn) [Compound 151, 4-((9-cyclopentyl-7,7-difluoro-5-methyl-6-oxo-6,7,8,9-tetrahydro-5H-pyrimido[4,5-b][1,4]diazepin-2-yl)amino)-N-(3-(2-(4-(2-(2,6-dioxopiperidin-3-yl)-1,3-dioxoisoindolin-4-yl)piperazin-1-yl)ethyl)pyrrolidin-1-yl)-3-methoxybenzamide] the same measures were “++ (++<0.6)”, less than 0.05 µM and more than 10 µM.
For `COc1cc(C(=O)N[C@H]2CC[C@H](N(C)CC3CCN(c4cccc5c4C(=O)N(C4CCC(=O)NC4=O)C5=O)CC3)CC2)ccc1Nc1ncc2c(n1)N(C(C)C)CC(F)(F)C(=O)N2C` (stereo partly drawn) [Compound 152, 4-((7,7-difluoro-9-isopropyl-5-methyl-6-oxo-6,7,8,9-tetrahydro-5H-pyrimido[4,5-b][1,4]diazepin-2-yl)amino)-N-((1r,4r)-4-(((1-(2-(2,6-dioxopiperidin-3-yl)-1,3-dioxoisoindolin-4-yl)piperidin-4-yl)methyl)(methyl)amino)cyclohexyl)-3-methoxybenzamide] the same measures were “++ (++<0.6)”, less than 0.05 µM and 6.17 µM.
In the case of `COc1cc(C(=O)N[C@H]2CC[C@H](N(C)CC3CCN(c4ccc5c(c4)C(=O)N(C4CCC(=O)NC4=O)C5=O)CC3)CC2)ccc1Nc1ncc2c(n1)N(C(C)C)CC(F)(F)C(=O)N2C` (stereo partly drawn) [Compound 153, 4-((7,7-difluoro-9-isopropyl-5-methyl-6-oxo-6,7,8,9-tetrahydro-5H-pyrimido[4,5-b][1,4]diazepin-2-yl)amino)-N-((1r,4r)-4-(((1-(2-(2,6-dioxopiperidin-3-yl)-1,3-dioxoisoindolin-5-yl)piperidin-4-yl)methyl)(methyl)amino)cyclohexyl)-3-methoxybenzamide], the “Activity: ratio” value at PLK1 is listed as “++ (++<0.6)”. Also, the IC50 with NCI-H526 cell line is less than 0.05 µM; in the assay on MRC-5 cell line (setting [1]), 15.8 µM.
With `COc1cc(C(=O)NN2CCC(N3CCN(c4ccc5c(c4)C(=O)N(C4CCC(=O)NC4=O)C5=O)CC3)C2)ccc1Nc1ncc2c(n1)N(C(C)C)CC(F)(F)C(=O)N2C` (stereo not drawn) [Compound 154, 4-((7,7-difluoro-9-isopropyl-5-methyl-6-oxo-6,7,8,9-tetrahydro-5H-pyrimido[4,5-b][1,4]diazepin-2-yl)amino)-N-(3-(4-(2-(2,6-dioxopiperidin-3-yl)-1,3-dioxoisoindolin-5-yl)piperazin-1-yl)pyrrolidin-1-yl)-3-methoxybenzamide], the “Activity: ratio” value at PLK1 is listed as “++ (++<0.6)”. Further, the IC50 in the assay on NCI-H526 cell line was less than 0.1 µM; in the assay with MRC-5 cell line (setting [1]) it was more than 10 µM.
For `COc1cc(C(=O)NN2CCC(N3CCN(c4cccc5c4C(=O)N(C4CCC(=O)NC4=O)C5=O)CC3)C2)ccc1Nc1ncc2c(n1)N(C(C)C)CC(F)(F)C(=O)N2C` (stereo not drawn) [Compound 155, 4-((7,7-difluoro-9-isopropyl-5-methyl-6-oxo-6,7,8,9-tetrahydro-5H-pyrimido[4,5-b][1,4]diazepin-2-yl)amino)-N-(3-(4-(2-(2,6-dioxopiperidin-3-yl)-1,3-dioxoisoindolin-4-yl)piperazin-1-yl)pyrrolidin-1-yl)-3-methoxybenzamide] the same measures were “+ (+<0.7)”, less than 0.1 µM and more than 10 µM.
The like results for `COc1cc(C(=O)N[C@H]2CC[C@H](N(C)CCN3CCN(c4ccc5c(c4)C(=O)N(C4CCC(=O)NC4=O)C5=O)CC3)CC2)ccc1Nc1ncc2c(n1)N(C(C)C)CC(F)(F)C(=O)N2C` (stereo partly drawn) [Compound 156, 4-((7,7-difluoro-9-isopropyl-5-methyl-6-oxo-6,7,8,9-tetrahydro-5H-pyrimido[4,5-b][1,4]diazepin-2-yl)amino)-N-((1r,4r)-4-((2-(4-(2-(2,6-dioxopiperidin-3-yl)-1,3-dioxoisoindolin-5-yl)piperazin-1-yl)ethyl)(methyl)amino)cyclohexyl)-3-methoxybenzamide] were, in that order, “++ (++<0.6)”, less than 0.05 µM and more than 10 µM.
